{
  "source": "patent US7642063B2",
  "about": "“Methods for targeting and killing glioma cells” (Auburn University, priority 2004, dated 2010)",
  "key": {"RG2 glioma cells [1]": {"test_system": "RG2 glioma cells", "assay": "Cytotoxicity by MTT assay on glioma cells", "type": "cell-based, rat", "settings": "10 or 100 uM, 48 hours incubation", "description": "(§1) Using glioma-selective sequences from the second family shown in FIG. 4 (and in FIG. 5(a)), a fusion molecule containing the same identical cell-targeting peptide coupled to a cell-killing peptide was designed and synthesized. Glioma cells (malignant cells originating from astrocytes) and normal astrocytes were treated with increasing concentrations (10 or 100 uM) of cytotoxic peptide alone, or cytotoxic peptide linked to the targeting peptide, i.e. the peptide drug, and cytotoxicity was evaluated by MTT assay (this assay measures cell viability).\n(§2) FIG. 5(b) further illustrates the cytotoxic effect of d(KLAKLAK)2(SEQ ID NO:4) and DSTK-GG-d(KLAKLAK)2(SEQ ID NO:5) peptides on the glioma cells and the normal astrocytes. RG2 glioma cells and normal rat astrocytes were plated in quadruplicate in 96-well plates for 24 hours. Increasing concentrations (10 or 100 uM) of cytotoxic peptide alone, d(KLAKLAK)2(SEQ ID NO:4), or cytotoxic peptide linked to targeting peptide, DSTK-GG-d(KLAKLAK)2(SEQ ID NO:5), were added to the cells for 48 hours incubation. Cytotoxicity of therapeutic peptides were evaluated by MTT assay."}, "normal rat astrocytes": {"test_system": "normal rat astrocytes", "assay": "Cytotoxicity by MTT assay on normal astrocytes", "type": "cell-based", "settings": "10 or 100 uM, 48 hours incubation", "description": "as §1, §2"}, "RG2 glioma cells [2]": {"test_system": "RG2 glioma cells", "assay": "Detection of internalized phage particles by immunofluorescence microscopy (saponin+/saponin−)", "type": "cell-based, rat", "settings": "saponin-treated vs untreated RG2 cells", "description": "FIG. 5(a) illustrates the detection of internalized phage particles by immunofluorescence microscopy. RG2 glioma cells were grown on chamber slides and incubated with DSTKSGNM (SEQ ID NO:3) phage. In cells treated with saponin (saponin+) to permeabilize cell membranes, both internalized and extracellular bound phage particles were accessible for staining. Without saponin treatment (saponin−), FIG. 5(a) illustrates that only extracellular phage were available for detection. These slides were then processed for immunofluorescence microscopy with antibody against filed phage, followed by a fluorescein-conjugated secondary antibody to visualize phage particles."}},
  "data": [
    {"compound": "CC(C)C[C@@H](NC(=O)[C@H](N)CCCCN)C(=O)N[C@H](C)C(=O)N[C@H](CCCCN)C(=O)N[C@H](CC(C)C)C(=O)N[C@H](C)C(=O)N[C@H](CCCCN)C(=O)N[C@H](CCCCN)C(=O)N[C@H](CC(C)C)C(=O)N[C@H](C)C(=O)N[C@H](CCCCN)C(=O)N[C@H](CC(C)C)C(=O)N[C@H](C)C(=O)N[C@H](CCCCN)C(=O)O", "note": "[cytotoxic peptide alone, d(KLAKLAK)2, reference compound]", "values": [
      {"measurement": "cytotoxic effect on glioma cells (MTT, cell viability)", "setting": "RG2 glioma cells [1]", "result": "no effect"},
      {"measurement": "effect on normal astrocytes (MTT, cell viability)", "setting": "normal rat astrocytes", "result": "None of the peptides, with or without targeting, demonstrated any effect"}
    ]},
    {"compound": "CC(C)C[C@@H](NC(=O)[C@@H](CCCCN)NC(=O)CNC(=O)CNC(=O)[C@H](CCCCN)NC(=O)[C@@H](NC(=O)[C@H](CO)NC(=O)[C@@H](N)CC(=O)O)[C@@H](C)O)C(=O)N[C@H](C)C(=O)N[C@H](CCCCN)C(=O)N[C@H](CC(C)C)C(=O)N[C@H](C)C(=O)N[C@H](CCCCN)C(=O)N[C@H](CCCCN)C(=O)N[C@H](CC(C)C)C(=O)N[C@H](C)C(=O)N[C@H](CCCCN)C(=O)N[C@H](CC(C)C)C(=O)N[C@H](C)C(=O)N[C@H](CCCCN)C(=O)O", "note": "[peptide drug, DSTK-GG-d(KLAKLAK)2]", "values": [
      {"measurement": "cytotoxic effect on glioma cells (MTT, cell viability)", "setting": "RG2 glioma cells [1]", "result": "clear cytotoxic effect"},
      {"measurement": "effect on normal astrocytes (MTT, cell viability)", "setting": "normal rat astrocytes", "result": "None of the peptides, with or without targeting, demonstrated any effect"}
    ]},
    {"compound": "DSTKSGNM [DSTKSGNM phage]", "values": [
      {"measurement": "internalization of phage by cells", "setting": "RG2 glioma cells [2]", "result": "internalized"}
    ]}
  ]
}
